Experimental data as given in patent US20260083864A1, “CONTRAST AGENTS FOR USE IN DIAGNOSTIC COMPUTED TOMOGRAPHY IMAGING” (Bayer Aktiengesellschaft, priority 2022, published 2026).

Tests used:
[1] = Relaxivity measurements at 1.41 T in human plasma; format: physicochemical; conditions: 37° C., normalized to Gd
Protocol: (§1) The T1 relaxation times were determined using the standard inversion recovery (IR) method with a fixed relaxation delay of at least 5×T1. The variable inversion time (TI) was calculated automatically by the standard software of the MiniSpec mq60 (8 steps). The T2 measurements were performed by using a Carr-Purcell-Meiboom-Gill (CPMG) pulse sequence, applying a relaxation delay of at least 5×T1.
Each relaxivity measurement was performed using three different Gd concentrations (3 concentrations between 0.05 and 2 mM).
(§2) The relaxivities n (where i=1, 2) were calculated based on the measured relaxation rates Ri in water and plasma: […]

[2] = Water solubility in aqueous buffer
Protocol: The solid compounds were added stepwise to the buffer solution. More substance is added once all the suspended material is dissolved until an equilibrium between undissolved and dissolved substance is reached. The suspension was mixed using a shaker (Heidolph Reax 2000) and treated 5 min in an ultrasound bath (Bandelin, Sonorex Super RK255H).

[3] = tested on: freshly isolated rat hepatocytes; test: Uptake into freshly isolated rat hepatocytes; conditions: for Uptake rat hepatocytes: 100 μmol Gd/L, 10 min, 37° C., relative to RC1 (Gd-EOB-DTPA); for Inhibition Rifampicine: rat hepatocyte uptake, test item and Rifampicine 1:1, each 100 μM
[4] = Relaxivity measurements at 1.41 T in water; format: physicochemical; conditions: 37° C., normalized to Gd
Protocol: as §1, with “Relaxivity measurements at 1.41 T were performed using a MiniSpec mq60 spectrometer (Bruker Analytik, Karlsruhe, Germany) operating at a resonance frequency of 60 MHz and a temperature of 37° C. The T1” for “The T1”
Each relaxivity measurement was performed using three different Gd concentrations (3 concentrations between 0.05 and 2 mM). […] Human plasma preparation: For each experiment fresh blood was taken from a volunteer using 10 mL citrate-tubes (Sarstedt S-Monovette 02.1067.001, 10 mL, Citrate). The 10 mL citrate-tubes were carefully inverted 10 times to mix blood and anticoagulant and centrifuged for 15 min at 1811 g at RT (Eppendorf, Centrifuge 5810R).
as §2

OATP1B1 = biological target: T1, OATP1B1 (Homo sapiens, UniProt Q9Y6L6); test: Uptake into stable transfected OATP1B1 HEK 293 cells; format: cell-based; conditions: for Uptake into OATP1B1-HEK 293 cells: 40 min incubation, relative to RC1 (Gd-EOB-DTPA); for Inhibition Rifampicine: uptake into OATP1B1-HEK 293 cells
T1 sequence (Q9Y6L6 1-691): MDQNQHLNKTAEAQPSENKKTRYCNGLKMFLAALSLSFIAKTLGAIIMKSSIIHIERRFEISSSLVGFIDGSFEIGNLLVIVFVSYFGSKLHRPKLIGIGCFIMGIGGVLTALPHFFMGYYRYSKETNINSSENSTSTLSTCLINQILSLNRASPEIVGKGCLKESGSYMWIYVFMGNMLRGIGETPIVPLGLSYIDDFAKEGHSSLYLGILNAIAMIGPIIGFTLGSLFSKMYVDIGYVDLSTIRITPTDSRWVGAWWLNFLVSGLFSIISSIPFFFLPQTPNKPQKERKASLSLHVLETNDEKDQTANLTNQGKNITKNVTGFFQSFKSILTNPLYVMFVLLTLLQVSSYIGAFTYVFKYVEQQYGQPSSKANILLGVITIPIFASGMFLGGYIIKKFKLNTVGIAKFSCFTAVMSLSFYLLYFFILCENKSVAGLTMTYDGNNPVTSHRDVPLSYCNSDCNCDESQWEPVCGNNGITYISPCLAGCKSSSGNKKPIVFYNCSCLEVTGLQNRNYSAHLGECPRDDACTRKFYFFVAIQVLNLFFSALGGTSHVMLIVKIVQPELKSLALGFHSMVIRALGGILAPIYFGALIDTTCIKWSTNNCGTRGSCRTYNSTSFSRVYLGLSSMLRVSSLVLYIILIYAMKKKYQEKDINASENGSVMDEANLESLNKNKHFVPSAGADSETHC
Protocol: (§3) Cryopreserved cells were shortly thawed in water bath and diluted in 10 mL warm culture medium (37° C.). After medium change the cells were grown for 3d in a 25 cm^2 cell culture flask. After 3 to 5d the cells were transferred into 75 cm^2 flasks. […] All test items were prepared in transport buffer at a final concentration of 100 M from stock solutions (180 to 500 mM concentration). The OATP1B1 HEK 293 cells were incubated with test solutions (test item in transport buffer 500 L) for 40 min on a thermoshaker without shaking (PHMP, Fa. Grant Bio). Triplicates were performed for each test item. After incubation the cells were washed with 2 mL of cold PBS (+) buffer (Dulbeccos PBS+, Fa. Gibco). […] As a reference standard Gd-EOB-DTPA (gadoxetate) is used in the same well plate.

[5] = Partition coefficient (log P butanol/buffer); format: physicochemical
OATP1B3 = biological target: T2, OATP1B3 (Homo sapiens, UniProt Q9NPD5); test: Uptake into stable transfected OATP1B3 HEK 293 cells; format: cell-based; conditions: for Uptake into OATP1B3-HEK 293 cells: 40 min incubation, relative to RC1 (Gd-EOB-DTPA); for Inhibition Rifampicine: uptake into OATP1B3-HEK 293 cells
T2 sequence (Q9NPD5 1-702): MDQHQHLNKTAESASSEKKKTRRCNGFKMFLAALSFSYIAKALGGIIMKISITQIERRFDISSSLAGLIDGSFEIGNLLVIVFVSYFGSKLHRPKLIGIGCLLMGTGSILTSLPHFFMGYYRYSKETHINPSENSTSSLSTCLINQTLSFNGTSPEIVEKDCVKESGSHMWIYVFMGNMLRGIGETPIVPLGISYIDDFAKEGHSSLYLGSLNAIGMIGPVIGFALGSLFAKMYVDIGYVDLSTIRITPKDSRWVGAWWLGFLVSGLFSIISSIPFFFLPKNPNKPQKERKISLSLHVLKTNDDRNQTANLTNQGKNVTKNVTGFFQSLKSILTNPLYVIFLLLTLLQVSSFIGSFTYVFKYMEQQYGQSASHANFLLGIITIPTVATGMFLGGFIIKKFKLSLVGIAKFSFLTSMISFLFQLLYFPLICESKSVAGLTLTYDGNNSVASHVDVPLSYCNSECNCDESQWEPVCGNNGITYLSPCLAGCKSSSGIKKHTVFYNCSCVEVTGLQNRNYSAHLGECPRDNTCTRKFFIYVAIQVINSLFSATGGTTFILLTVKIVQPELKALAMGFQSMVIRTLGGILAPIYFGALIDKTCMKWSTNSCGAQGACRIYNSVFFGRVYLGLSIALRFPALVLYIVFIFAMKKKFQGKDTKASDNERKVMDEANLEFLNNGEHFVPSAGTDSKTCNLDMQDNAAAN
Protocol: as §3, with “100 µM” for “100 M”, “The OATP1B3” for “The OATP1B1”, “500 μL)” for “500 L)”

[6] = aqueous buffer 10 mM Tris-HCl, pH 7.4, 20° C.
[7] = 1-butanol / 50 mM Tris-HCl, pH 7.4, room temperature

CCOCCOCCOc1ccc(C[C@@H](C(=O)O)N2CCN(CC(=O)[O-])CCN(CC(=O)[O-])CCN(CC(=O)[O-])CC2)cc1.[Gd+3] [Example 3, gadolinium 2,2′,2″-{10-[(1S)-1-carboxy-2-{4-[2-(2-ethoxyethoxy)ethoxy]phenyl}ethyl]-1,4,7,10-tetraazacyclododecane-1,4,7-triyl}triacetate]
r1 human plasma [1]: 6.5 L/mmol/s | Solubility [2, 6]: >331 mM | Uptake rat hepatocytes [3]: 47 % of RC1 | Inhibition Rifampicine [3]: 96 % inhibition | r1 water [4]: 4.3 L/mmol/s | Uptake into OATP1B1-HEK 293 cells (OATP1B1): 63 % of RC1 | Inhibition Rifampicine (OATP1B1): 29 % inhibition | Log P (partition coefficient butanol/buffer) [5, 7]: −1.61 | Uptake into OATP1B3-HEK 293 cells (OATP1B3): 18 % of RC1 | Inhibition Rifampicine (OATP1B3): 89 % inhibition

O=C([O-])CN1CCN(CC(=O)[O-])CCN([C@H](Cc2ccc(OCC(F)(F)F)cc2)C(=O)O)CCN(CC(=O)[O-])CC1.[Gd+3] [Example 47, gadolinium 2,2′,2″-(10-{(1R)-1-carboxy-2-[4-(2,2,2-trifluoroethoxy)phenyl]ethyl}-1,4,7,10-tetraazacyclododecane-1,4,7-triyl)triacetate]
r1 human plasma [1]: 7.8 L/mmol/s | Solubility [2, 6]: >229 mM | Uptake rat hepatocytes [3]: 55 % of RC1 | Inhibition Rifampicine [3]: 82 % inhibition | r1 water [4]: 3.7 L/mmol/s | Uptake into OATP1B1-HEK 293 cells (OATP1B1): 13 % of RC1 | Inhibition Rifampicine (OATP1B1): 93 % inhibition | Log P (partition coefficient butanol/buffer) [5, 7]: −0.77 | Uptake into OATP1B3-HEK 293 cells (OATP1B3): 19 % of RC1 | Inhibition Rifampicine (OATP1B3): 90 % inhibition

CCOCCOCCOc1ccc(CCC[C@@H](C(=O)O)N2CCN([C@@H](CO)C(=O)[O-])CCN([C@H](CO)C(=O)[O-])CCN([C@@H](CO)C(=O)[O-])CC2)cc1.[Gd+3] [Example 35, gadolinium (2S,2'S)-2,2′-{4-[(1S)-1-carboxy-4-{4-[2-(2-ethoxyethoxy)ethoxy]phenyl}butyl]-10-[(1R)-1-carboxylato-2-hydroxyethyl]-1,4,7,10-tetraazacyclododecane-1,7-diyl}bis(3-hydroxypropanoate)]
r1 human plasma [1]: 8.6 L/mmol/s | Solubility [2, 6]: >164 mM | r1 water [4]: 5.6 L/mmol/s | Inhibition Rifampicine (OATP1B1): 87 % inhibition | Log P (partition coefficient butanol/buffer) [5, 7]: −1.02 | Inhibition Rifampicine (OATP1B3): 98 % inhibition

CCOCCOCCOc1ccc(CC(C(=O)O)N2CCN(CC(=O)[O-])CCN(C(C)C(=O)[O-])CCN(CC(=O)[O-])CC2)cc1.[Gd+3] (single isomer, unassigned) [Example 5, gadolinium 2-[7-(1-carboxy-2-{4-[2-(2-ethoxyethoxy)ethoxy]phenyl}ethyl)-4,10-bis(carboxylatomethyl)-1,4,7,10-tetraazacyclododecan-1-yl]propanoate]
r1 human plasma [1]: 6.9 L/mmol/s | Solubility [2, 6]: >59 mM | Uptake rat hepatocytes [3]: 28 % of RC1 | Inhibition Rifampicine [3]: 92 % inhibition | r1 water [4]: 4.7 L/mmol/s | Log P (partition coefficient butanol/buffer) [5, 7]: −1.52

CCOCCOCCOc1ccc(CC(C(=O)O)N2CCN(C(CCO)C(=O)[O-])CCN(C(CCO)C(=O)[O-])CCN(C(CCO)C(=O)[O-])CC2)cc1.[Gd+3] (stereo not drawn) [Example 37, gadolinium-2,2′-{4-[1-carboxy-2-{4-[2-(2-ethoxyethoxy)ethoxy]phenyl}ethyl]-10-[1-carboxylato-3-hydroxypropyl]-1,4,7,10-tetraazacyclododecane-1,7-diyl}bis(4-hydroxybutanoate)]
r1 human plasma [1]: 8.4 L/mmol/s | Solubility [2, 6]: 18 mM | Uptake rat hepatocytes [3]: 26 % of RC1 | Inhibition Rifampicine [3]: 37 % inhibition | r1 water [4]: 6.4 L/mmol/s | Log P (partition coefficient butanol/buffer) [5, 7]: −1.16

CCOCCOCCOc1ccc(CCC[C@@H](C(=O)O)N2CCN(C(CCO)C(=O)[O-])CCN(C(CCO)C(=O)[O-])CCN(C(CCO)C(=O)[O-])CC2)cc1.[Gd+3] (mixture of isomers) [Example 36, gadolinium-2,2′-{4-[(1S)-1-carboxy-4-{4-[2-(2-ethoxyethoxy)ethoxy]phenyl}butyl]-10-[1-carboxylato-3-hydroxypropyl]-1,4,7,10-tetraazacyclododecane-1,7-diyl}bis(4-hydroxybutanoate)]
r1 human plasma [1]: 8.5 L/mmol/s | Solubility ([2]; pH 7.4): 85 mM | r1 water [4]: 6.1 L/mmol/s | Log P (partition coefficient butanol/buffer) ([5]; pH 7.4): −1.08
